Residues, ends and D or L forms follow the SMILES beside them. No end group written: not given here.
Tested on: TG level in blood
Experiment: Serum TG elevation inhibiting action at the time of in vivo lipid loading (olive oil)
Parameters: species or system albino mice
Conditions: for Ratio of Increase in Blood TG Levels (%): blood collected after 3 hours; for ID^50: Dose (mg/mouse) exhibiting 50% inhibition: oral, with 250 mg olive oil, blood TG after 3 hours; for Specific Activity: relative to the proteolysate (= 1)
Method: Serum TG elevation inhibiting action at the time of in vivo lipid loading was examined on the three peptides of the invention inhibiting elevations of TG levels in blood (i.e., the peptide having the amino acid sequence of SEQ ID NO: 1 and the peptides Val-Thr-Leu and Val-Tyr-Pro synthesized by the method described in Example 4). Healthy albino mice (5-10 weeks old; body weight: about 20-30 g) were used in this experiment. To each mouse, 250 mg of olive oil and an aqueous solution of the above peptide were administered orally. Three hours thereafter, blood was collected under anesthesia with Nembutal. After separation of the blood, the TG level in blood was determined.

Compound	Ratio of Increase in Blood TG Levels (%) (dose 1x10^-3 mg/mouse oral with 250 mg olive oil)	Ratio of Increase in Blood TG Levels (%) (dose 1x10^-4 mg/mouse oral with 250 mg olive oil)	Ratio of Increase in Blood TG Levels (%) (dose 4x10^-4 mg/mouse oral with 250 mg olive oil)	Ratio of Increase in Blood TG Levels (%) (dose 4x10^-5 mg/mouse oral with 250 mg olive oil)	ID^50: Dose (mg/mouse) exhibiting 50% inhibition	Specific Activity	Ratio of Increase in Blood TG Levels (%) (dose 0.1 mg/mouse oral with 250 mg olive oil)	Ratio of Increase in Blood TG Levels (%) (dose 0.2 mg/mouse oral with 250 mg olive oil)	Ratio of Increase in Blood TG Levels (%) (dose 1.0 mg/mouse oral with 250 mg olive oil)	Ratio of Increase in Blood TG Levels (%) (dose 2.5 mg/mouse oral with 250 mg olive oil)	Ratio of Increase in Blood TG Levels (%) (dose 5.0 mg/mouse oral with 250 mg olive oil)
LVVYPWT [SEQ ID NO: 1, Leu-Val-Val-Tyr-Pro-Trp-Thr]	65%	33%	33%	14%	5.6x10^-4 mg/mouse	50000	–	–	–	–	–
CC(C)C[C@H](NC(=O)[C@@H](NC(=O)[C@@H](N)C(C)C)[C@@H](C)O)C(=O)O [Val-Thr-Leu, H-Val-Thr-Leu-OH] (H-Val-Thr-Leu-OH)	–	–	–	–	0.43 mg/mouse	65	30%	33%	73%	76%	79%
